Assay results published in patent publication US20250091994A1, “RAS/RAF BINDING INHIBITOR COMPOUND” (NATIONAL UNIVERSITY CORPORATION KOBE UNIVERSITY, priority 2021, published 2025).
Read-outs that look alike come from different tables or passages of the source. Each block holds one molecule with its values, some of them ahead of it.

Assays:
[1] = target: GTPγS-bound human HRasG12V / human c-Raf-1 Ras binding domain (RBD) (Homo sapiens (Human), UniProt P01112, G12V); test: Ras-Raf binding inhibition ELISA
Description: The in vitro Ras-Raf binding inhibitory activity of the compound of the present invention was evaluated by an ELISA method (Enzyme-Linked ImmunoSorbent Assay) described below.
Ras and Raf used upon the evaluation were purified and activated by the following method.
Using a pGEX6P-1 vector (GE Healthcare), human HRasG12V (full length, 1-189 amino acid residues) and human c-Raf-1 Ras binding domain (RBD) (50-131 amino acid residues) were each allowed to express as a fusion body with glutathione S-transferase (GST) in E. coli.
GST-HRasG12V-expressing cells were subjected to ultrasonication in a buffer {50 mM Tris-HCl pH 7.4, 150 mM NaCl, 5 mM MgCl2, 1 mM ethylenediaminetetraacetic acid (EDTA), 1 mM dithiothreitol (DTT), 10% glycerol, and 1% Triton-X100}, and were then centrifuged at 100,000×g for 30 minutes, so as to collect the supernatant as a Ras protein fraction. HRasG12V in the supernatant was immobilized on a glutathione-agarose resin, and GST was then cleaved with PreScission Protease (GE Healthcare) for purification. The obtained HRasG12V was mixed with guanosine 5′-O-[gamma-thio]triphosphate trisodium salt (GTPTS) of 1000 times higher concentration at 30° C. for 1 hour, and thereafter, 20 mM MgCl2 (final concentration) was added to stop the reaction and collect the GTPgS-loaded HRasG12V as a product.
On the other hand, GST-c-Raf-1 RBD-expressing cells were subjected to ultrasonication in the same buffer as described above, and were then centrifuged at 100,000×g for 30 minutes, so as to collected the supernatant as a GST-c-Raf-1 RBD protein fraction.
The in vitro Ras-Raf binding inhibitory activity of the compound of the present invention was evaluated by an ELISA method described below.
GST-c-Raf-1 RBD diluted with a Ras-Raf binding buffer (50 mM Tris-HCl pH7.4, 150 mM NaCl, 5 mM MgCl2, 1 mM EDTA, and 1% Triton-X100) was added to each well of a glutathione-coated 96-well plate (Thermo Fisher Scientific.), and was incubated at 30° C. for 1 hour, to immobilize Raf on the well. The unbound free Raf was eliminated by washing the well with the Ras-Raf binding buffer three times. Subsequently, GTPTS-bound HRasG12V diluted with the Ras-Raf binding buffer and each compound solution (final DMSO concentration: 10%) were applied to each well, and the resulting mixture was then incubated at 30° C. for 1 hour, so that Ras and Raf were allowed to bind to each other. Thereafter, the plate was washed with the Ras-Raf binding buffer twice, and was then subjected to a blocking treatment at room temperature for 20 minutes, using TBS-Tween {10 mM Tris-HCl pH 7.4, 150 mM NaCl, and 0.05% (w/v) Tween-20}-5% (w/v) bovine serum albumin (BSA). After that, an anti-HRas antibody (C-20, Santa Cruz) or an anti-HRas antibody (259, Santa Cruz), which had been 1000 times diluted with TBS-Tween-5% BSA, was added to the reaction mixture, and incubated at room temperature for 1 hours. After the treatment with the primary antibody, the plate was washed with TBS-Tween-5% BSA three times, and a horseradish peroxidase-labeled secondary antibody against rabbit immunoglobulin G (GE Healthcare) of 1000 times diluted with TBS-Tween-5% BSA, was added to the plate, followed by incubation at room temperature for 1 hour. After the treatment with the secondary antibody, the plate was washed with TBS-Tween-5% BSA three times, and a substrate solution (TMB) was then added to the plate, followed by incubation at room temperature for 15 minutes for coloration. Finally, 2 M H2SO4 was added to stop color development (coloration reaction kit: Nacalai Tesque). The absorbance at 450 nm (OD450) was measured, so that the color intensity was quantified. Inhibition by the test compound was determined according to the following equation: […]
IC50 (*) in which the anti-HRas antibody (259, Santa Cruz) was used

[2] = system: promyelocytic leukemia cells HL60 (N-RasQ61L); test: Cell growth inhibition, suspension cells HL60; format: cell-based; conditions: Homo sapiens, HL-60, 72 hours; for inhibition at 10 µM: read-out: HL-60 (NRasQ61L) % inhibition at 10 μM (***)
Description: The cell growth inhibitory activity of the compound of the present invention on human culture cells having active-type mutation in Ras was evaluated by the below-mentioned method using suspension cancer cells {acute lymphoblastic leukemia cells CCRF-CEM (K-RasG12D), promyelocytic leukemia cells HL60 (N-RasQ61L), acute lymphoblastic leukemia cells MOLT4 (N-RasG12C), and small cell lung cancer cells SHP77 (K-RasG12V)} and adherent cancer cells {large bowel cancer cells SW480 (K-RasG12V) and large bowel cancer cell SW620 (K-RasG12V)}.
(Case of suspension cells) The cells suspended in a medium containing 0.5% (v/v) fetal bovine serum (FBS) and each compound solution (final DMSO concentration: 1%) were seeded on a 96-well plate (2 to 4×10^4 cells/well), and the resulting mixture was then cultured at 37° C. in the presence of 5% CO2 for 72 hours.
Thereafter, the number of viable cells was measured using Cell Counting Reagent (Nacalai Tesque) in accordance with the manufacturer's instructions. Inhibition by the test compound was determined according to the following equation: […]

[3] = anti-HRas antibody 259 (*), read-out: ELISA IC50 (μM): 1st Ab_259 (*)
[4] = anti-HRas antibody C-20, read-out: ELISA IC50 (μM): 1st Ab_C-20

GTPγS-bound human HRasG12V / human c-Raf-1 Ras binding domain (RBD), sequence (P01112 whole entry G12V, the tested form may be a part): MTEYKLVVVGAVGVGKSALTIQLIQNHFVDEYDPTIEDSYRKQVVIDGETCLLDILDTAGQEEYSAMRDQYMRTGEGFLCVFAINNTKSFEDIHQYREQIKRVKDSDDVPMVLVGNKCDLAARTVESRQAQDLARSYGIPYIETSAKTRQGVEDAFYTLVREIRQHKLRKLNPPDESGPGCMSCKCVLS

SMILES: CC(=O)N1/C(=C\c2nc3ccc(C(=O)N4CC(C)OC(C)C4)cc3s2)C(=O)c2ccccc21 (centres unmarked) [Example 100, (Z)-1-acetyl-2-((6-(2,6-dimethyl-morpholine-4-carbonyl)benzo [d]thiazol-2-yl)-methylene)indolin-3-one]
IC50 [1, 3]: 0.77 µM
inhibition at 10 µM [2]: 87%

SMILES: COc1cc(/C=C2/C(=O)c3ccccc3N2C(C)=O)ccc1OCCOc1ccccc1 [Example 12, 1-acetyl-2-(3-methoxy-4-(2-phenoxyethoxy)-benzylidene)-indolin-3-one]
inhibition at 100 µM [1]: 49%

SMILES: CC(=O)N1/C(=C/c2nc3ccc(CNC4CCOCC4)cc3s2)C(=O)c2ccccc21 [Example 135, (E)-1-acetyl-2-((6-(((tetrahydro-2H-pyran-4-yl)-amino)methyl)-benzo[d]thiazol-2-yl)methylene)-indolin-3-one]
inhibition at 10 µM [2]: 98%

SMILES: CC(=O)N1/C(=C\c2cc(-c3ccc(C(=O)O)cc3)c3cc(C(=O)N4CCOCC4)ccc3n2)C(=O)c2ccccc21 [Example 174, (Z)-4-(2-((1-acetyl-3-oxoindolin-2-ylidene)methyl)-6-(morpholine-4-carbonyl)quinolin-4-yl)benzoic acid]
inhibition at 1 µM [1]: 70.1%
IC50 [1, 4]: 0.5 µM

SMILES: CC(=O)N1/C(=C\c2nc3cc(C(=O)N4CC(C)OC(C)C4)ccc3s2)C(=O)c2ccccc21 (centres unmarked) [Example 98, (Z)-1-acetyl-2-((5-(2,6-dimethyl-morpholine-4-carbonyl)benzo [d]thiazol-2-yl)-methylene)indolin-3-one]
IC50 [1, 3]: 0.68 µM
inhibition at 10 µM [2]: 100%

SMILES: COc1cc(/C=C2/C(=O)c3ccccc3N2C(C)=O)ccc1O [Example 3, 1-acetyl-2-(4-hydroxy-3-meth-oxybenzylidene)-indolin-3-one]
inhibition at 100 µM [1]: 57%

SMILES: CC(=O)N1/C(=C\c2cc(-c3cccc(C(=O)O)c3)c3cc(C(=O)N4CCOCC4)ccc3n2)C(=O)c2ccccc21 [Example 175, (Z)-3-(2-((1-acetyl-3-oxoindolin-2-ylidene)methyl)-6-(morpholine-4-carbonyl)quinolin-4-yl)benzoic acid]
inhibition at 1 µM [1]: 67.2%
IC50 [1, 4]: 0.5 µM

SMILES: CC(=O)N1/C(=C\c2ccc3oc(C(=O)N4CCOCC4)cc3n2)C(=O)c2ccccc21 [Example 72, (Z)-1-acetyl-2-((2-(morpholine-4-carbonyl)furo [3,2-b]pyridin-5-yl)methylene)-indolin-3-one]
IC50 [1, 3]: 3.6 µM

SMILES: CC(=O)N1/C(=C/c2nc3ccc(C(=O)N4CC(C)OC(C)C4)cc3s2)C(=O)c2ccccc21 (centres unmarked) [Example 101, (E)-1-acetyl-2-((6-(2,6-dimethyl-morpholine-4-carbonyl)benzo [d]thiazol-2-yl)-methylene)indolin-3-one]
inhibition at 10 µM [2]: 87%

SMILES: CC(=O)N1/C(=C\c2nc3ccc(CNC4CCOCC4)cc3s2)C(=O)c2ccccc21 [Example 134]
IC50 [1, 3]: 1.1 µM

SMILES: CC(=O)N1/C(=C\c2ccc(OCC(N)=O)cc2)C(=O)c2ccccc21 [Example 5, 2-(4-((1-acetyl-3-oxoindolin-2-ylidene)methyl)-phenoxy)acetamide]
inhibition at 100 µM [1]: 71%

SMILES: CC(=O)N1/C(=C\c2cc(-c3cccnn3)c3cc(C(=O)N4CCOCC4)ccc3n2)C(=O)c2ccccc21 [Example 191, (Z)-1-acetyl-2-((6-(morpholine-4-carbonyl)-4-(pyridazin-3-yl)-quinolin-2-yl)-methylene)indolin-3-one]
inhibition at 1 µM [1]: 49.2%
IC50 [1, 4]: 1.1 µM

SMILES: CC(=O)N1/C(=C\c2ccc3cc(CNC4CC(C)O[C@H](C)C4)ccc3n2)C(=O)c2ccccc21 (mixture of isomers) [Example 137, (Z)-1-acetyl-2-((6-((((2SR,6SR)-2,6-dimethyltetra-hydro-2H-pyran-4-yl)amino)meth-yl)quinolin-2-yl)-methylene)indolin-3-one]
IC50 [1, 3]: 1.3 µM

SMILES: CC(=O)N1/C(=C\c2cc(-c3ccccc3C(=O)O)c3cc(C(=O)N4CCOCC4)ccc3n2)C(=O)c2ccccc21 [Example 176, (Z)-2-(2-((1-acetyl-3-oxoindolin-2-ylidene)methyl)-6-(morpholine-4-carbonyl)quinolin-4-yl)benzoic acid]
inhibition at 1 µM [1]: 51.1%
IC50 [1, 4]: 1 µM

SMILES: CC(=O)N1/C(=C\c2cc(-c3cccc4cccnc34)c3cc(C(=O)O)ccc3n2)C(=O)c2ccccc21 [Example 155, (Z)-2-((1-acetyl-3-oxoindolin-2-ylidene)methyl)-[4,8′-biquinoline]-6-carboxylic acid]
inhibition at 1 µM [1]: 59.3%
IC50 [1, 4]: 0.7 µM

Further lines, with some results ahead:

IC50 [1, 4]: 14 µM
SMILES: CC(=O)N1/C(=C\c2ccc(C(=O)N3CCOCC3)cn2)C(=O)c2ccccc21 [Example 70, (Z)-1-acetyl-2-((5-(morpholine-4-carbonyl)pyridin-2-yl)methylene)-indolin-3-one]
inhibition at 1 µM ([2]; 1 μM, read-out: HL-60 (NRasQ61L) % inhibition at 1 μM): 33%

inhibition at 1 µM [1]: 59.9%
IC50 [1, 4]: 0.8 µM
SMILES: CC(=O)N1/C(=C\c2cc(-c3nc[nH]n3)c3cc(C(=O)N4CCOCC4)ccc3n2)C(=O)c2ccccc21 (racemic) [Example 212, 1-acetyl-2-((6-(morpholine-4-carbonyl)-4-(1H-1,2,4-triazol-3-yl)-quinolin-2-yl)-methylene)indolin-3-one]

inhibition at 100 µM [1]: 63%
SMILES: CC(=O)N1/C(=C\c2ccc(OCC(N)=O)c(OC(C)C)c2)C(=O)c2ccccc21 [Example 30, 2-(4-((1-acetyl-3-oxoindolin-2-ylidene)methyl)-2-isopropoxy-phenoxy)acet-amide]

IC50 [1, 3]: 0.93 µM
SMILES: CC(=O)N1/C(=C\c2ccc3cc(/C=C/C(=O)N4CCN(C5COC5)CC4)ccc3n2)C(=O)c2ccccc21 [Example 78]
inhibition at 10 µM [2]: 92%

IC50 [1, 3]: 1.7 µM
SMILES: CC(=O)N1/C(=C\c2ccc3cc(CNC4C[C@@H](C)O[C@@H](C)C4)ccc3n2)C(=O)c2ccccc21 (mixture of isomers) [Example 136, (Z)-1-acetyl-2-((6-((((2SR,6RS)-2,6-dimethyltetra-hydro-2H-pyran-4-yl)amino)meth-yl)quinolin-2-yl)-methylene)indolin-3-one]

IC50 [1, 4]: 14 µM
SMILES: CC(=O)N1/C(=C\c2ccc(OCC(=O)N3CCOCC3)c(F)n2)C(=O)c2ccccc21 [Example 32, (Z)-1-acetyl-2-((6-fluoro-5-(2-morpholino-2-oxoethoxy)-pyridin-2-yl)-methylene)-indolin-3-one]

inhibition at 100 µM [1]: 83%
SMILES: COc1cc(/C=C2/C(=O)c3ccccc3N2C(C)=O)ccc1OCCN1CCOCC1 [Example 7, (Z)-1-acetyl-2-(3-methoxy-4-(2-morpholinoethoxy)-benzylidene)indolin-3-one]
